Results from patent US20190308933A1, “PHENYLAMIDINES AND THE USE THEREOF AS FUNGICIDES” (priority 2016, published 2019).
Read-outs that look alike come from different tables or passages of the source.

Columns and labels:
[1] = Log P measurement by HPLC on reversed phase columns (EEC directive 79/831 Annex V.A8); assay type: physicochemical; settings: LC-UV; for chromatographic logP: reversed phase HPLC column
Description: [table] Measurement of Log P values was performed according to EEC directive 79/831 Annex V.A8 by HPLC (High Performance Liquid Chromatography) on reversed phase columns with the following methods: If more than one Log P value is available within the same method, all the values are given and separated by “+”. […] Lambda-max-values were determined using UV-spectra from 200 nm to 400 nm and the peak values of the chromatographic signals.

[2] = test system: Phakopsora pachyrhizi; assay: In vivo preventive test on Phakopsora (soybeans); parameters: species or system Phakopsora pachyrhizi (soybean rust) on soybeans; settings: 168 h, young soybean plants sprayed, 10 ppm of active ingredient, evaluated 7 days after inoculation, 0% = untreated control, 100% = no disease, read-out: efficacy
Description: Example: In Vivo Preventive Test on Phakopsora Test (Soybeans)
To produce a suitable preparation of active compound, 1 part by weight of active compound is mixed with the stated amounts of solvent and emulsifier, and the concentrate is diluted with water to the desired concentration.
To test for preventive activity, young plants are sprayed with the preparation of active compound at the stated rate of application. After the spray coating has dried on, the plants are inoculated with an aqueous spore suspension of the causal agent of soybean rust (Phakopsora pachyrhizi) and stay for 24 h without light in an incubation cabinet at approximately 24° C. and a relative atmospheric humidity of 95%.
The plants remain in the incubation cabinet at approximately 24° C. and a relative atmospheric humidity of approximately 80% and a day/night interval of 12 h.
The test is evaluated 7 days after the inoculation. 0% means an efficacy which corresponds to that of the untreated control, while an efficacy of 100% means that no disease is observed.

[3] = acidic range, 0.1% formic acid in water and acetonitrile as eluent (linear gradient 10% to 95% acetonitrile), read-out: LogP [a]
[4] = neutral range, 0.001 molar ammonium acetate solution in water and acetonitrile as eluent (linear gradient 10% to 95% acetonitrile), read-out: LogP [b]
[5] = acidic range, 0.1% formic acid in water and acetonitrile as eluent (linear gradient 10% to 95% acetonitrile)
[6] = neutral range, 0.001 molar ammonium acetate solution in water and acetonitrile as eluent (linear gradient 10% to 95% acetonitrile)

Row | Compound | chromatographic logP [1, 3] | chromatographic logP [1, 4] | pest or weed control at 10 ppm [2] [%] | LogP [a] [1, 5] | LogP [b] [1, 6]
1 | C=C(c1ccccc1)c1cc(Cl)c(N=CN(C)CC)cc1C [Example 31, N′-[2-chloro-5-methyl-4-(1-phenylethen-1-yl)phenyl]-N-ethyl-N-methylmethanimidamide] | 1.66 | 4.93 |  |  | 
2 | CCN(C)C=Nc1cc(F)c(C(C)c2ccccc2)cc1C (stereo not drawn) [Example 34, N-ethyl-N′-[5-fluoro-2-methyl-4-(1-phenylethyl)phenyl]-N-methylmethanimidamide] | 1.55 | 4.63 |  |  | 
3 | CCN(C)C=Nc1cc(C)c(C2(c3ccccc3)CC2(F)F)cc1C (stereo not drawn) [Example 14, N′-[4-(2,2-difluoro-1-phenylcyclopropyl)-2,5-dimethylphenyl]-N-ethyl-N-methylmethanimidamide] | 1.63 |  | 90 to 100 |  | 
4 | CCN(C)C=Nc1cc(Cl)c(Cc2ccccc2OC)cc1C [Example 29] |  |  |  | 1.58^[a]; | 4.95^[b]
5 | CCN(C)C=Nc1cc(Cl)c(C(C)c2ccccc2)cc1C (stereo not drawn) [Example 18, N′-[5-chloro-2-methyl-4-(1-phenylethyl)phenyl]-N-ethyl-N-methylmethanimidamide] | 1.58 | 5.32 | 90 to 100 |  | 
6 | CCN(C)C=Nc1cc(C)c(C2(c3ccccc3)CC2(Br)Br)cc1C (stereo not drawn) [Example 16, N′-[4-(2,2-dibromo-1-phenylcyclopropyl)-2,5-dimethylphenyl]-N-ethyl-N-methylmethanimidamide] | 1.89 |  |  |  | 
7 | CCN(C)C=Nc1cc(C)c(C2(c3ccccc3)CC2)cc1C [Example 13, N′-[2,5-dimethyl-4-(1-phenylcyclopropyl)phenyl]-N-ethyl-N-methylmethanimidamide] | 1.85 |  | 90 to 100 |  | 
8 | CCN(C)C=Nc1cc(Cl)c(Cc2ccccc2C#N)cc1C [Example 4, N′-[5-chloro-4-[(2-cyanophenyl)methyl]-2-methylphenyl]-N-ethyl-N-methylmethanimidamide] | 1.38 | 4.38 |  |  | 
9 | CCN(C)C=Nc1cc(Cl)c(Cc2ccccc2Cl)cc1C [Example 30, N′-[5-chloro-4-[(2-chlorophenyl)methyl]-2-methylphenyl]-N-ethyl-N-methylmethanimidamide] | 1.81 | 5.55 | 90 to 100 |  | 
10 | CCN(C)C=Nc1cc(Cl)c(Cc2ccccc2)cc1C [Example 6, N′-(4-benzyl-5-chloro-2-methylphenyl)-N-ethyl-N-methylmethanimidamide] | 1.72 | 5.16 | 90 to 100 |  | 
11 | CCN(C)C=Nc1cc(C)c(Cc2ccccc2)cc1Cl [Example 3, N′-(4-benzyl-2-chloro-5-methylphenyl)-N-ethyl-N-methylmethanimidamide] | 1.49 |  | 90 to 100 |  | 
12 | CCN(C)C=Nc1cc(C)c(Cc2ccccc2F)cc1Cl [Example 2, N′-[2-chloro-4-[(2-fluorophenyl)methyl]-5-methylphenyl]-N-ethyl-N-methylmethanimidamide] | 1.52 | 4.5 | 90 to 100 |  | 
13 | CCN(C)C=Nc1cc(Cl)c(Cc2cccc(F)c2F)cc1C [Example 24, N′-[5-chloro-4-[(2,3-difluorophenyl)methyl]-2-methylphenyl]-N-ethyl-N-methylmethanimidamide] | 1.63 | 4.92 | 90 to 100 |  | 
14 | CCN(C)C=Nc1cc(F)c(Cc2ccccc2OC)cc1C [Example 32, N-ethyl-N′-[5-fluoro-4-[(2-methoxyphenyl)methyl]-2-methylphenyl]-N-methylmethanimidamide] | 1.46 | 4.34 |  |  | 
15 | CCN(C)C=Nc1cc(Cl)c(Cc2ccccc2-c2ccccc2)cc1C [Example 25, N′-[5-chloro-2-methyl-4-[(2-phenylphenyl)methyl]phenyl]-N-ethyl-N-methylmethanimidamide] | 2.05 | 6.02 |  |  | 
16 | CCN(C)C=Nc1cc(C)c(Cc2ccc(F)cc2F)cc1C [Example 9, N′-[4-[(2,4-difluorophenyl)methyl]-2,5-dimethylphenyl]-N-ethyl-N-methylmethanimidamide] | 1.79 | 4.86 | 90 to 100 |  | 

Row | Compound | chromatographic logP [1, 3] | chromatographic logP [1, 4] | pest or weed control at 10 ppm [2] [%] | LogP [a] [1, 5] | LogP [b] [1, 6]
17 | CCN(C)C=Nc1cc(F)c(Cc2ccc(F)cc2F)cc1C [Example 35, N′-[4-[(2,4-difluorophenyl)methyl]-5-fluoro-2-methylphenyl]-N-ethyl-N-methylmethanimidamide] | 1.52 | 4.54 |  |  | 
18 | CCN(C)C=Nc1cc(C)c(C(C)c2ccccc2)cc1Cl (stereo not drawn) [Example 27, N′-[2-chloro-5-methyl-4-(1-phenylethyl)phenyl]-N-ethyl-N-methylmethanimidamide] | 1.61 | 4.7 |  |  | 
19 | CCN(C)C=Nc1cc(Cl)c(Cc2ccc(F)cc2F)cc1C [Example 22, N′-[5-chloro-4-[(2,4-difluorophenyl)methyl]-2-methylphenyl]-N-ethyl-N-methylmethanimidamide] | 1.63 |  | 90 to 100 |  | 
20 | CCN(C)C=Nc1cc(C)c(Cc2ccccc2C#N)cc1C [Example 8, N′-[4-[(2-cyanophenyl)methyl]-2,5-dimethylphenyl]-N-ethyl-N-methylmethanimidamide] | 1.47 | 4.15 | 90 to 100 |  | 
21 | CCN(C)C=Nc1cc(C)c(C2(c3ccccc3)CC2(Cl)Cl)cc1C (stereo not drawn) [Example 15, N′-[4-(2,2-dichloro-1-phenylcyclopropyl)-2,5-dimethylphenyl]-N-ethyl-N-methylmethanimidamide] | 1.83 |  |  |  | 
22 | CCN(C)C=Nc1cc(Cl)c(Cc2ccccc2F)cc1C [Example 5] |  |  |  | 1.58[a]; | 2.99[b]
23 | CCN(C)C=Nc1cc(C)c(Cc2ccccc2Cl)cc1Cl [Example 28, N′-[2-chloro-4-[(2-chlorophenyl)methyl]-5-methylphenyl]-N-ethyl-N-methylmethanimidamide] | 1.63 | 4.93 |  |  | 
24 | C=C(c1ccccc1)c1cc(C)c(N=CN(C)CC)cc1Cl [Example 19, N′-[5-chloro-2-methyl-4-(1-phenylethen-1-yl)phenyl]-N-ethyl-N-methylmethanimidamide] | 1.58 | 5.24 | 80 to 89 |  | 
25 | CCN(C)C=Nc1cc(C)c(Cc2ccccc2C#N)cc1Cl [Example 1, N′-[2-chloro-4-[(2-cyanophenyl)methyl]-5-methylphenyl]-N-ethyl-N-methylmethanimidamide] | 1.41 | 3.86 | 80 to 89 |  | 
26 | CCN(C)C=Nc1cc(C)c(Cc2ccccc2Cl)cc1C [Example 7, N′-[4-[(2-chlorophenyl)methyl]-2,5-dimethylphenyl]-N-ethyl-N-methylmethanimidamide] | 1.92 | 5.16 |  |  | 
27 | CCN(C)C=Nc1cc(C)c(Cc2ccccc2OC)cc1Cl [Example 26, N′-[2-chloro-4-[(2-methoxyphenyl)methyl]-5-methylphenyl]-N-ethyl-N-methylmethanimidamide] | 1.53 | 4.45 |  |  | 
28 | CCN(C)C=Nc1cc(C)c(Cc2ccccc2)cc1C [Example 11, N′-(4-benzyl-2,5-dimethylphenyl)-N-ethyl-N-methylmethanimidamide] | 1.58 | 4.9 | 90 to 100 |  | 
29 | CCN(C)C=Nc1cc(Cl)c(Cc2ccccc2C)cc1C [Example 23, N′-[5-chloro-2-methyl-4-[(2-methylphenyl)methyl]phenyl]-N-ethyl-N-methylmethanimidamide] | 1.66 | 5.54 | 90 to 100 |  | 
30 | Cc1cc(N=CN(C)C(C)C)c(C)cc1Cc1ccc(F)cc1F [Example 12, N′-[4-[(2,4-difluorophenyl)methyl]-2,5-dimethylphenyl]-N-isopropyl-N-methylmethanimidamide] | 1.92 | 5.31 | 90 to 100 |  | 
31 | CCN(C)C=Nc1cc(F)c(Cc2ccccc2)cc1C [Example 20, N′-(4-benzyl-5-fluoro-2-methylphenyl)-N-ethyl-N-methylmethanimidamide] | 2 | 4.62 | 90 to 100 |  | 
32 | CCN(C)C=Nc1cc(F)c(Cc2ccccc2F)cc1C [Example 33, N-ethyl-N′-[5-fluoro-4-[(2-fluorophenyl)methyl]-2-methylphenyl]-N-methylmethanimidamide] | 1.41 | 4.37 |  |  | 
